These compounds were tested on mutant HIV-1 with I84V/L90M mutations. Settings: I84V/L90M mutant.
Type: cell-based

Structure (SMILES) | I84V/L90M fold change
COc1ccc(S(=O)(=O)N(CC(C)C)CC(O)C(Cc2ccc(OCc3ccccc3)cc2)NC(=O)OC2COC3OCCC23)cc1 (stereo not drawn) | − (≦3)
COc1ccc(S(=O)(=O)N(CCN(C)C)CC(O)C(Cc2ccc(O)cc2)NC(=O)OC2COC3OCCC23)cc1 (stereo not drawn) | − (≦3)
COc1ccc(S(=O)(=O)N(CCN(C)C)CC(O)C(Cc2ccc(OCc3ccccc3)cc2)NC(=O)OC2COC3OCCC23)cc1 (stereo not drawn) | − (≦3)
CCOC(=O)C(C)OP(=O)(Cc1ccc2c(c1)CCN(C[C@H](NC(=O)O[C@H]1CO[C@H]3OCC[C@H]31)[C@H](O)CN(CC(C)C)S(=O)(=O)c1ccc(OC)cc1)C2)Oc1ccccc1 (stereo partly drawn) | + (>3 to ≦10)
Cc1cccc(C)c1OCC(=O)NC(Cc1ccc(OCP(=O)(O)O)cc1)C(O)CN(CC(C)C)S(=O)(=O)c1ccc(N)cc1 (stereo not drawn) | − (≦3)
Cc1cccc(C)c1OCC(=O)NC(Cc1ccc(OCP(=O)(OCc2ccccc2)OCc2ccccc2)cc1)C(O)CN(CC(C)C)S(=O)(=O)c1ccc(N)cc1 (stereo not drawn) | − (≦3)
Cc1ccc(C(=O)NC(Cc2ccc(OCP(=O)(OCc3ccccc3)OCc3ccccc3)cc2)C(O)CN(CC(C)C)S(=O)(=O)c2ccc(N)cc2)cc1O (stereo not drawn) | + (>3 to ≦10)
CC(C)CN(CC(O)C(Cc1ccc(OCP(=O)(O)O)cc1)NC(=O)OC1COC2OCCC12)S(=O)(=O)c1ccc(N)cc1 (stereo not drawn) | − (≦3)
CCOP(=O)(COc1ccc(CC(NC(=O)OC2COC3OCCC23)C(O)CN(CC(C)C)S(=O)(=O)c2ccc(N)cc2)cc1)OCC (stereo not drawn) | − (≦3)
CCOP(=O)(COc1ccc(CC(NC(=O)OC2COC3OCCC23)C(O)CN(CC(C)C)S(=O)(=O)c2ccc([N+](=O)[O-])cc2)cc1)OCC (stereo not drawn) | − (≦3)
CCNc1ccc(S(=O)(=O)N(CC(C)C)CC(O)C(Cc2ccc(OCP(=O)(OCC)OCC)cc2)NC(=O)OC2COC3OCCC23)cc1 (stereo not drawn) | − (≦3)
CC(C)CN(CC(O)C(Cc1ccc(OCP(=O)(OCc2ccccc2)OCc2ccccc2)cc1)NC(=O)OC1COC2OCCC12)S(=O)(=O)c1ccc(N)cc1 (stereo not drawn) | − (≦3)
CC(C)CN(CC(O)C(Cc1ccc(OCP(=O)(O)O)cc1)NC(=O)OC1COC2OCCC12)S(=O)(=O)c1cccc(N)c1 (stereo not drawn) | − (≦3)
CCOP(=O)(COc1ccc(CC(NC(=O)OC2COC3OCCC23)C(O)CN(CC(C)C)S(=O)(=O)c2cccc(N)c2)cc1)OCC (stereo not drawn) | − (≦3)
CC(C)CN(CC(O)C(Cc1ccc(OCP(=O)(OCc2ccccc2)OCc2ccccc2)cc1)NC(=O)OC1COC2OCCC12)S(=O)(=O)c1cccc(N)c1 (stereo not drawn) | − (≦3)
CCCCOC(=O)C(C)OP(=O)(COc1ccc(CC(NC(=O)OC2COC3OCCC23)C(O)CN(CC(C)C)S(=O)(=O)c2cccc(N)c2)cc1)Oc1ccccc1 (stereo not drawn) | − (≦3)
CC(C)CN(CC(O)C(Cc1ccc(OCP(=O)(OCc2ccccc2)OCc2ccccc2)cc1)NC(=O)OC1COC2OCCC12)S(=O)(=O)c1ccccc1 (stereo not drawn) | + (>3 to ≦10)
CC(C)CN(CC(O)C(Cc1ccc(OCP(=O)(OCc2ccccc2)OCc2ccccc2)cc1)NC(=O)OC1COC2OCCC12)S(=O)(=O)c1ccc(C(F)(F)F)cc1 (stereo not drawn) | − (≦3)
CC(C)CN(CC(O)C(Cc1ccc(OCP(=O)(OCc2ccccc2)OCc2ccccc2)cc1)NC(=O)OC1COC2OCCC12)S(=O)(=O)c1ccc(C#N)cc1 (stereo not drawn) | − (≦3)
CC(C)CN(CC(O)C(Cc1ccccc1)NC(=O)OC1COC2OCCC12)S(=O)(=O)c1ccc(O)cc1 (stereo not drawn) | − (≦3)
CC(C)CN(CC(O)C(Cc1ccccc1)NC(=O)OC1COC2OCCC12)S(=O)(=O)c1ccc(OCP(=O)(O)O)cc1 (stereo not drawn) | − (≦3)
COc1ccc(S(=O)(=O)N(CC(C)C)CC(O)C(Cc2ccccc2)NC(=O)OC2COC3OCCC23)cc1O (stereo not drawn) | − (≦3)
COc1ccc(S(=O)(=O)N(CC(C)C)CC(O)C(Cc2ccccc2)NC(=O)OC2COC3OCCC23)cc1OCP(=O)(O)O (stereo not drawn) | − (≦3)
CCOP(=O)(COc1cc(S(=O)(=O)N(CC(C)C)CC(O)C(Cc2ccccc2)NC(=O)OC2COC3OCCC23)ccc1O)OCC (stereo not drawn) | − (≦3)
CC(C)CN(C[C@@H](O)[C@H](Cc1ccc(OCP(=O)(Oc2ccccc2)Oc2ccccc2)cc1)NC(=O)OC1CCOC1)S(=O)(=O)c1ccc(N)cc1 (stereo partly drawn) [NH2, phenol] | − (≦3)
CC(C)CN(CC(O)C(Cc1ccc(O)cc1)NC(=O)OC1COC2OCCC12)S(=O)(=O)c1cccc(N)c1 (stereo not drawn) [OH, m-NH2] | − (≦3)
CC(C)CN(CC(O)C(Cc1ccc(O)cc1)NC(=O)OC1COC2OCCC12)S(=O)(=O)c1ccc(N)cc1 (stereo not drawn) [OH, p-NH2] | − (≦3)
COc1ccc(S(=O)(=O)N(CC(C)C)C[C@@H](O)[C@H](Cc2ccc(OCP(=O)(O)O)cc2)NC(=O)OC2CCOC2)cc1 (stereo partly drawn) [OMe, OH] | +++ (>30)
COc1ccc(S(=O)(=O)N(CC(C)C)C[C@@H](O)[C@H](Cc2ccc(OCP(=O)(Oc3ccccc3)Oc3ccccc3)cc2)NC(=O)OC2CCOC2)cc1 (stereo partly drawn) [OMe, phenol] | + (>3 to ≦10)

Same assay, conditions: fold difference in EC50 vs wild type, class symbols

Structure (SMILES) | I84V/L90M fold change
CCOP(=O)(CN1CC=C(CC(NC(=O)OC2COC3OCCC23)C(O)CN(CC(C)C)S(=O)(=O)c2ccc(OC)cc2)CC1)OCC (stereo not drawn) | + (>3 to ≦10)
COc1ccc(S(=O)(=O)N(CC(C)C)CC(O)C(CC2=CCN(CCP(=O)(OCc3ccccc3)OCc3ccccc3)CC2)NC(=O)OC2COC3OCCC23)cc1 (stereo not drawn) | + (>3 to ≦10)
CCOP(=O)(CCC1=CCN(CC(NC(=O)OC2COC3OCCC23)C(O)CN(CC(C)C)S(=O)(=O)c2ccc(OC)cc2)CC1)OCC (stereo not drawn) | + (>3 to ≦10)
CCOP(=O)(Cc1ccc(NCC(NC(=O)OC2COC3OCCC23)C(O)CN(CC(C)C)S(=O)(=O)c2ccc(OC)cc2)cc1)OCC (stereo not drawn) | + (>3 to ≦10)
CCOP(=O)(Cc1ccc(N(C)CC(NC(=O)OC2COC3OCCC23)C(O)CN(CC(C)C)S(=O)(=O)c2ccc(OC)cc2)cc1)OCC (stereo not drawn) | + (>3 to ≦10)
CCOP(=O)(OCC)c1ccc(CN(C)CC(NC(=O)OC2COC3OCCC23)C(O)CN(CC(C)C)S(=O)(=O)c2ccc(OC)cc2)cc1 (stereo not drawn) | − (≦3)
CCOP(=O)(Cc1ccc2c(c1)CCN(CC(NC(=O)OC1COC3OCCC13)C(O)CN(CC(C)C)S(=O)(=O)c1ccc(OC)cc1)C2)OCC (stereo not drawn) | + (>3 to ≦10)
CCOP(=O)(CNc1ccc(CC(NC(=O)OC2COC3OCCC23)C(O)CN(CC(C)C)S(=O)(=O)c2ccc(OC)cc2)cc1)OCC (stereo not drawn) | − (≦3)
COc1ccc(S(=O)(=O)N(CC(C)C)CC(O)C(Cc2ccc(NCP(=O)(OCc3ccccc3)OCc3ccccc3)cc2)NC(=O)OC2COC3OCCC23)cc1 (stereo not drawn) | − (≦3)
COC(=O)N[C@H](C(=O)N[C@@H](Cc1ccccc1)[C@@H](O)CN(Cc1ccc(-c2ccccn2)cc1)NC(=O)[C@@H](NC(=O)OC)C(C)(C)C)C(C)(C)C [Atazanavir, reference compound] | +++ (>30)
COc1ccc(S(=O)(=O)N(CC(C)C)CC(O)C(Cc2ccc(OCP(=O)(OCc3ccccc3)OCc3ccccc3)cc2)NC(=O)OC2COC3OCCC23)cc1 (stereo not drawn) [drawing 602 R1=OBn R2=OBn] | − (≦3)
CCOP(=O)(COc1ccc(CC(NC(=O)OC2COC3OCCC23)C(O)CN(CC(C)C)S(=O)(=O)c2ccc(OC)cc2)cc1)OCC (stereo not drawn) [drawing 602 R1=OEt R2=OEt] | − (≦3)
COc1ccc(S(=O)(=O)N(CC(C)C)CC(O)C(Cc2ccc(OCP(=O)(O)O)cc2)NC(=O)OC2COC3OCCC23)cc1 (stereo not drawn) [drawing 602 R1=OH R2=OH] | − (≦3)
COc1ccc(S(=O)(=O)N(CC(C)C)CC(O)C(Cc2ccc(OCP(=O)(OC(C)C)OC(C)C)cc2)NC(=O)OC2COC3OCCC23)cc1 (stereo not drawn) [drawing 602 R1=OiPr R2=OiPr] | − (≦3)
CCOP(=O)(OCC)c1ccc(CC(NC(=O)OC2COC3OCCC23)C(O)CN(CC(C)C)S(=O)(=O)c2ccc(OC)cc2)cc1 (stereo not drawn) [drawing 604 R1=OEt R2=OEt] | − (≦3)
CCNP(=O)(COc1ccc(CC(NC(=O)OC2COC3OCCC23)C(O)CN(CC(C)C)S(=O)(=O)c2ccc(OC)cc2)cc1)NCC (stereo not drawn) [drawing 606 R1=NHEt R2=NHEt] | − (≦3)
CCOC(=O)C(NP(=O)(COc1ccc(CC(NC(=O)OC2COC3OCCC23)C(O)CN(CC(C)C)S(=O)(=O)c2ccc(OC)cc2)cc1)NC(C(=O)OCC)C(C)C)C(C)C (stereo not drawn) [drawing 606 R1=Val-Et R2=Val-Et] | − (≦3)
CCOC(=O)C(C)OP(=O)(COc1ccc(CC(NC(=O)OC2COC3OCCC23)C(O)CN(CC(C)C)S(=O)(=O)c2ccc(OC)cc2)cc1)OC(C)C(=O)OCC (stereo not drawn) [drawing 607 R1=Lac-Et R2=Lac-Et] | − (≦3)
COc1ccc(S(=O)(=O)N(CC(C)C)CC(O)C(Cc2ccc(OCP(=O)(OC(C)C(=O)OC(C)C)OC(C)C(=O)OC(C)C)cc2)NC(=O)OC2COC3OCCC23)cc1 (stereo not drawn) [drawing 607 R1=Lac-iPr R2=Lac-iPr] | − (≦3)
CCOC(=O)C(C)NP(=O)(COc1ccc(CC(NC(=O)OC2COC3OCCC23)C(O)CN(CC(C)C)S(=O)(=O)c2ccc(OC)cc2)cc1)OCc1ccccc1 (stereo not drawn) [drawing 608 R1=OBn R2=Ala-Et] | − (≦3)
COc1ccc(S(=O)(=O)N(CC(C)C)CC(O)C(Cc2ccc(OCP(=O)(NC(C)C(=O)OC(C)C)Oc3ccccc3)cc2)NC(=O)OC2COC3OCCC23)cc1 (stereo not drawn) [drawing 608 R1=OPh R2=(D)Ala-iPr] | − (≦3)
CCCCOC(=O)C(C)NP(=O)(COc1ccc(CC(NC(=O)OC2COC3OCCC23)C(O)CN(CC(C)C)S(=O)(=O)c2ccc(OC)cc2)cc1)Oc1ccccc1 (stereo not drawn) [drawing 608 R1=OPh R2=Ala-Bu] | − (≦3)
COC(=O)C(C)NP(=O)(COc1ccc(CC(NC(=O)OC2COC3OCCC23)C(O)CN(CC(C)C)S(=O)(=O)c2ccc(OC)cc2)cc1)Oc1ccccc1 (stereo not drawn) [drawing 608 R1=OPh R2=Ala-Me] | − (≦3)
COc1ccc(S(=O)(=O)N(CC(C)C)CC(O)C(Cc2ccc(OCP(=O)(NC(C)C(=O)OC(C)C)Oc3ccccc3)cc2)NC(=O)OC2COC3OCCC23)cc1 (stereo not drawn) [drawing 608 R1=OPh R2=Ala-iPr] | − (≦3)
CCCCOC(=O)CNP(=O)(COc1ccc(CC(NC(=O)OC2COC3OCCC23)C(O)CN(CC(C)C)S(=O)(=O)c2ccc(OC)cc2)cc1)Oc1ccccc1 (stereo not drawn) [drawing 608 R1=OPh R2=Gly-Bu] | − (≦3)

From patent US20070190523A1 (priority 2002, published 2007)
